We go through three compounds from patent US20010012854A1, “MULTICATALYTIC PROTEASE INHIBITORS FOR USE AS ANTI-TUMOR AGENTS” (priority 1997, published 2001).

One experiment has as its system MCF-7 breast carcinoma. Nature of the experiment: Calcein-AM viability assay, MCF-7. The class given is cell-based. The settings on record: Homo sapiens, MCF7. How it is done: (§1) Cells were initially seeded in 96-well plates at varying density, then assayed using the Calcein-AM viability assay after 24 hours to determine the optimal final density for each cell type. Cells were then seeded in 96-well plates at this density in 100 μL of the proper cell media as follows:
(§2) Serial dilutions of the compounds were made so that concentrations were twice the desired concentration to be evaluated. When 100 μL of the dilution was then added to the cells plated in 100 μL of media, a final concentration of 0, 11.7, 46.9, 187.5, 375 and 750 nM was obtained. Compounds were added to the plates three to four hours after seeding the cells, then the plates were incubated at 37° C. for the desired time point (generally one, two, or three day incubations).
(§3) Calcein-AM viability assays were conducted at the desired time points as follows. Media were aspirated using a manifold and metal plate to leave approximately 50 μL/well. The wells were then washed three times with 200 μL DPBS (Gibco), aspirating each time with the manifold to leave 50 μL/well. A 8 μM solution of Calcein-AM (Molecular Probes) in DPBS was prepared and 150 μL was added to each well. The plates were then incubated at 37° C. for 30 minutes. […] After the final aspiration, fluorescence was measured using a Cytofluor 2300 fluorescence plate reader. […]

For experiment [1], the system named is AT-2 (rat) prostatic carcinoma. Description: Calcein-AM viability assay, AT-2. Type of experiment: cell-based. How it is done: as §1, §2, §3
In experiment [2] the test system is Lewis Lung carcinoma xenografts. Nature of the experiment: In vivo growth of Lewis Lung carcinoma xenografts in athymic nude mice. Also on record: species or system murine. The following applies: 3 mg/kg, s.c., QD, 5 days a week, 12 days. How it is done: Female athymic nude mice were injected s.c. with 1×10^6 Lewis Lung carcinoma cells into the right rear flank. Upon tumors achieving 150 to 200 mm^3 in volume, mice were randomized into groups of ten animals each and dosing commenced with Compound I (2 mg/kg, s.c., QD, 5 days a week), Compound J (3 mg/kg, s.c., QD, 5 days a week), or vehicle alone (30% Solutol) for a total of 12 days. Tumor measurements (volume) were determined with vernier calipers in two dimensions every two to three days. Statistical analyses of drug-associated anti-tumor efficacy relative to vehicle-treated controls were conducted using the Mann-Whitney Rank sum test.

Experiment [3] deals with OVCAR-3 ovarian carcinoma. Nature of the experiment: Calcein-AM viability assay, OVCAR-3. The class given is cell-based. The settings on record: Homo sapiens. How it is done:
as §1, §2, §3

For experiment [4], the system named is Lewis lung (murine) lung carcinoma. Nature of the experiment: Calcein-AM viability assay, Lewis Lung. Type of experiment: cell-based. The following applies: Mus musculus. How it is done:
as §1, §2, §3

The subject of experiment [5] is PANC-1 pancreatic carcinoma. Description: Calcein-AM viability assay, PANC-1. The class given is cell-based. The settings on record: Homo sapiens. How it is done:
as §1, §2, §3

For experiment [6], the system named is DU145 prostatic carcinoma. Nature of the experiment: Calcein-AM viability assay, DU-145. Type of experiment: cell-based. The settings on record: Homo sapiens. How it is done:
as §1, §2, §3

A further experiment has as its system SKMEL-5 melanoma. Description: Calcein-AM viability assay, SKMEL-5. The following applies: Homo sapiens, SK-MEL-5. Type of experiment: cell-based. As for the experimental part:
as §1, §2, §3

The test system of experiment [7] is murine melanoma cell line, B16-F0. Description: In vivo B16-F0 melanoma tumor growth in C57BL mice. The following applies: 10 mg/kg/day, ip. How it is done: a. Materials: MCP inhibitors used for in vivo studies (Compounds D and E) were each formulated in 25% Solutol.
b. Cell line: The murine melanoma cell line, B16-F0, was grown at 37° C. in a humidified incubator, with a 95% air/5% CO2 atmosphere, in Dulbecco's modified Eagle's medium with 4.5 g/l glucose (Cellgro/Mediatech, Washington, D.C.) containing 10% fetal bovine serum (Hyclone Labs, Logan, Utah), 2 mM glutamine (GibcoBRL, Long Island, N.Y.), penicillin (100 I.U./mL) (GibcoBRL), and streptomycin (100 μg/mL) (GibcoBRL). The cells were determined to be free of mycoplasma and rodent viruses (MAP testing). Exponentially growing cells were harvested using 5 mL of warm trypsin/EDTA (0.05%, 0.5 mM)((GibcoBRL). The total volume was brought up to 10 mL with Complete Medium to neutralize trypsin and cells were counted with a hemocytometer. The cells were then collected by brief centrifugation and the cell pellet was resuspended in Phosphate Buffered Saline (GibcoBRL) to achieve the final concentration of 1×10^7 live cells/ml.
c. Animals: Female C57BL mice (20-25 g) obtained from Harlan Sprague Dawley, Indianapolis, Ind. were maintained five mice/cage and given a commercial diet and water ad libitum. […]
e. Tumor measurements: Tumors were measured using a vernier caliper every 2 to 3 days. Tumor volume was calculated using the formula: […]

For experiment [8], the system named is Jurkat Human T Cell Leukemia Line. Description: Jurkat cell viability assay (XTT reduction). Type of experiment: cell-based. The settings on record: Jurkat cells, 24 hours, viability by XTT reduction, read-out: Toxicity (IC50). As for the experimental part:
f. Cell viability assay. Jurkat cells were treated with MCP inhibitors or vehicle for 30 min. at 37° C. Next, ionomycin (1 μM) and the phorbol ester PMA (10 ng/ml) were added, together with 0.2% ethanol. After 24 h, cell viability was assessed by reduction of XTT (Sigma, X4251). To each well, 50 μl of XTT (1 mg/ml) and 25 μl PMS (Sigma 9625, 5 mM) were added. After 3 h at 37° C., the OD of each well was read at 450 nm/690 nm by a plate reader.
(§4) The rank-order potency for Jurkat cell killing precisely matched the order for MCP inhibition (Table 2, below).
On the technique in general: Tetrazolium assays rely on reduction of a dye to a coloured formazan, in cell work by metabolically active cells.

Experiment [9] concerns the target MCP chymotrypsin-like activity (Homo sapiens, UniProt P28074). Nature of the experiment: Inhibition of MCP chymotrypsin-like activity. Type of experiment: biochemical.
Text: as §4
Inhibition of the chymotrypsin-like activity of MCP by the disclosed MCP inhibitors has been reported, but these MCP inhibitors produced relatively little inhibition on the MCP trypsin-like activity and cathepsin B, a vacuolar cysteine protease (Iqbal, M., et al. J. Med Chem. 38: 2276-2277, 1995; Iqbal, M., et al. Bioorg. Med. Chem. Lett. 6: 287-290, 1996; and Harding, C. V., et al. J. Immuno. 155: 1767-1775, 1995). Furthermore, the order of potency for inhibition of the chymotrypsin-like activity was reported to be Compound A>Compound B>Compound C by using both isolated MCP and intact murine B cells (Iqbal, M., et al. J. Med Chem. 38: 2276-2277, 1995; Iqbal, M., et al. Bioorg. Med. Chem. Lett. 6: 287-290, 1996; and Harding, C. V., et al. J. Immuno. 155: 1767-1775, 1995).

Where only a bound is given, the exact number is not on record here.

Regarding `CC(C)C[C@@H](NC(=O)[C@H](CCCN/C(N)=N/[N+](=O)[O-])NC(=O)C(CCCCCCCCN1C(=O)c2ccccc2C1=O)C1CCCC1)B1O[C@H]2CC3CC(C3(C)C)C2(C)O1` (stereo partly shown) [Compound J], the IC50 (in general, the concentration that inhibits the measured activity by half) in the experiment with MCF-7 breast carcinoma (MCF-7, 24 h) is more than 1000 nM; with MCF-7 breast carcinoma (MCF-7, 72 h), 289 nM; in experiment [1] (AT-2, 24 h), more than 1000 nM; in experiment [1] (AT-2, 72 h), more than 1000 nM; in experiment [3] (OVCAR-3, 24 h), more than 1000 nM; in [3] (OVCAR-3, 72 h), 29 nM. Further, the IC50 was 411 nM in experiment [4] (24 h); 505 nM in [4] (72 h); more than 1000 nM in experiment [5] (PANC-1, 24 h); 185 nM in [5] (PANC-1, 72 h); 385 nM in experiment [6] (DU-145, 24 h); 167 nM in [6] (DU-145, 72 h). Further, the IC50 in the experiment on SKMEL-5 melanoma (SKMEL-5, 24 h) is 427 nM; with SKMEL-5 melanoma (SKMEL-5, 72 h) it was 82 nM. Besides, the “Lung carcinoma tumor growth (tumor volume)” value in experiment [2] is “inhibit lung carcinoma tumor growth”.

As to `CC(C)C[C@H](NC(=O)[C@H](CCCN/C(N)=N/[N+](=O)[O-])NC(=O)C(CCCCCCCCN1C(=O)c2ccccc2C1=O)C1CCCC1)B(O)O` (stereo partly shown) [E], in experiment [7], the “Melanoma tumor growth (tumor volume)” value is on record as “inhibit melanoma tumor growth”.

In the case of `CC(C)C[C@H](NC(=O)[C@H](CCCNC(N)=N[N+](=O)[O-])NC(=O)C(CCCCCCCCC#N)C1CCCC1)B(O)O` (stereo partly shown) [D], in experiment [7], the “Melanoma tumor growth (tumor volume)” value is “inhibit melanoma tumor growth”. Further, the IC50 in [8] was 600 nM; in experiment [9] it was 5 nM.
